Assay results as given in patent publication US11008325B2, “Inhibitors of cancer invasion, attachment, and/or metastasis” (VIRGINIA COMMONWEALTH UNIVERSITY, priority 2016, dated 2021).
Entries after “also recorded” stand apart in the source; their conditions may differ. Read-outs that look alike come from different tables or passages of the source.

Key:
[1] = system: HCC-driven tumor xenograft; assay: HCC tumor xenograft, alone or with sorafenib; type: in vivo, athymic nude mice; conditions: in combination with sorafenib, I.P.
Protocol: FIGS. 48A-48C. Biological effects of PDZ1i in vivo in melanoma, HCC and PC. FIG. 48A) Compounds were administered I.P. 6 times within first two weeks following inoculation (I.V. injection) of B16 cells in C57BL/6 mice to evaluate the anti-metastatic efficacy. FIG. 48B) HCC-driven tumor xenograft was established in athymic nude mice. Compound alone or in combination with Sorafenib were given through I.P. Tumor volumes were considered as an end point of this study. FIG. 48C) Hi-Myc, a mouse model for spontaneous prostate cancer either received the compound or vehicle at the age of 8 weeks (immediate after onset of disease) for total 9 injections (3/week). After 16 weeks from the first injection, prostate were collected and pathologically evaluated. Representative photomicrographs (Left panel) and H and E stained slides (Right panel) from prostate were presented.

[2] = system: PDZ domain from X11/mint scaffold protein; assay: NMR [15N,1H] HSQC counter screen; type: binding; conditions: 20 μM protein, 100 μM 113B7
Protocol: FIGS. 4A-4E. FIG. 4A. Chemical structures of the two initial fragment hits (top) and the structure of the resulting molecule 113B7 (PDZ1i). FIG. 4B. Superposition of 2D [^15N, ^1H]-HSQC spectra of 50 μM MDA-9 PDZ12 tandem domain in the absence and presence of 350 μM 113B7. FIG. 4C. Binding curve and representative spectra for the titration of 113B7 against MDA-9 PDZ12 tandem domain. Top: Zoom of box region in FIG. 4B after titrating 113B7 into Mda9 PDZ, tandem domain. The cross peak corresponding to the backbone amide of residue A147 experiences a gradual shift upon the addition of 113B7. Bottom: Titration curve of 113B7 for residue A147. The dissociation constant for the binding of 113B7 to MDA-9 was calculated to be 21.37±8.62 μM. FIG. 4D. Superposition of 2D [^15N, ^1H]-HSQC spectra of 50 μM PDZ domain from X11/mint scaffold protein ([…]; 33% identity with PDZ1) are shown in absence and in presence of […] 113B7. […] FIG. 4E. Docked structure of 113B7 in complex with MDA-9 PDZ tandem domain (PDB: 1W9E). The pose was obtained with GOLD. Two PDZ domains of MDA-9 are labeled.
FIG. 52. Left panel, Docked structure of compound 113B7 on the surface of MDA-9/Syntenin. The docked structure is supported by NMR chemical shift mapping data. […]

[3] = target: MDA-9/Syntenin PDZ2 only domain (Homo sapiens, UniProt O00560); assay: NMR [15N,1H] HSQC binding, counter domain; conditions: up to 100 μM compound, 20 μM protein
Protocol: FIG. 52. Left panel, Docked structure of compound 113B7 on the surface of MDA-9/Syntenin. The docked structure is supported by NMR chemical shift mapping data. The titration (see later in FIG. 55 for chemical shift mapping and titration) allows for the calculation of an upper limit for the dissociation constant of the complex, Kd<10 μM. […] The [^15N,^1FI]-HSQC spectra of MDA-9/Syntenin PDZ2 only domain are reported in the top right panel (apo at 20 μM; in presence of 100 μM 113B7). In the bottom right panel can be seen the spectra of the PDZ domain from X11/mint scaffold protein (33% identity with PDZ1) are reported in absence (20 μM protein) and in presence of 100 μM 113B7.
Based on these studies and NMR guided initial docking calculations, >50 bi-dentate compounds were synthesized and tested, leading to compound 113B7 (FIG. 52). […] Moreover, as a way to further address specificity of our ligands, we also tested the most promising compounds against two closely related domains to the PDZs of MDA-9/Syntenin, such as the PDZ tandem protein Harmonin (36% identity to PDZ2 of MDA-9/Syntenin and 31% to PDZ1 of MDA-9/syntenin) or PDZ domain from X11/mint scaffold protein (33% identity with PDZ1), and no significant binding to these counter-screen proteins was observed (FIG. 52).

[4] = pharmacokinetics after IV and IP administration; type: in vivo, Balb/c mice; conditions: for concentration at 0.25 h: 0.250 h
cancer cells = assay: toxicity to cultured cells; type: cell-based, human
melanocytes = assay: toxicity to melanocytes; type: cell-based; conditions: tested up to 100 μM
U87 cells = assay: MTT assay after radiation; type: cell-based, human; conditions: radiation plus PDZ1i versus radiation plus DMSO
Protocol: FIGS. 8A-8D. PDZ1i produces similar effects to mda-9/syntenin knockdown post-radiation. FIG. 8A. ImPHFA and U87 cells were treated with 50 μM PDZ1i 2 h prior to radiation and analyzed for colony formation after 14 d. FIG. 8B. U87 cells were treated with 50 μM PDZ1i 2 h prior to radiation and analyzed via MTT assay after 24 h. FIG. 8C. U87 cells were pretreated with 50 μM PDZ1i 2 h prior to radiation and subsequently seeded in a trans-well Matrigel invasion assay and stained after 24 h. Invasion was quantified from 5 random fields in FIG. 8D. Error bars=±s.d. *p<0.05, **p<0.01.
Clonogenic radiosurvival experiments were carried out as described previously (4,7). Briefly, cells were diluted, seeded on 6-cm dishes, and after the cells attached, treated with DMSO or PDZ1i (12.5, 25, or 50 μM) in the medium for 2 h before irradiation. Cells were incubated overnight, and the medium changed to nondrug containing medium 16 h postirradiation. Cells were incubated further for 14 days, stained with 2% Giemsa solution, and colonies consisting of 50 or more were counted. Cell viability was assessed through MTT analysis as described previously (8).

[5] = Balb/c, mouse, plasma, IP 30 mg/kg
[6] = Balb/c, mouse, plasma, IP 30 mg/kg, read-out: Plasma Concentration, Mean IP
[7] = Balb/c, mouse, plasma, IV 3 mg/kg, read-out: Plasma Concentration, Mean IV

Chain of MDA-9/Syntenin PDZ2 only domain (O00560 198-273 limits assumed): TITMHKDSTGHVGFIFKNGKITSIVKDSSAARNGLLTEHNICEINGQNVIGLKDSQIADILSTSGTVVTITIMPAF

## Cc1cc(NC(=O)c2nc3[nH]c4c(c(=O)n3n2)CCC4)c(C)cc1NC(=O)CCc1nnc(-c2ccccc2)o1 [113B7, N-(2,5-dimethyl-4-(3-(5-phenyl-1,3,4-oxadiazol-2-yl)propanamido)phenyl)-8-oxo-5,6,7,8-tetrahydro-4H-cyclopenta[d][1,2,4]triazolo[1,5-a]pyrimidine-2-carboxamide]
[1]
  HCC tumor growth: synergistically inhibited HCC growth; also recorded: inhibit HCC tumor growth
[2]
  binding to X11/mint PDZ domain: No appreciable binding is detected
[3]
  binding to PDZ2 domain: does not bind appreciably; also recorded: does not appreciably bind; also recorded: do not significantly bind
[4]; 3.0 mg/Kg IV and 30.0 mg/Kg IP, mice
  signs of toxicity during the PK experiment: lack of adverse signs of toxicity
[4]; Balb/c, mouse, intravenous, intraperitoneal, in each route: 3.0 mg/Kg IV and 30.0 mg/Kg IP, mice, serum, read-out: T1/2 (very slow clearance)
  half-life: > 9 h
[4]; Balb/c, mouse, plasma, intraperitoneal, 30 mg/kg, IP 30 mg/kg versus IV 3 mg/kg, read-out: Bioavailability (IP/IV)
  bioavailability: 81.2%
[4]; Balb/c, mouse, plasma, ip, 30 mg/kg, IP 30 mg/kg, read-out: AUC0-int (first line)
  AUC: 975 µg·h/mL
[4]; Balb/c, mouse, plasma, ip, 30 mg/kg, IP 30 mg/kg, read-out: AUC0-int (second line)
  AUC: 1180 µg·h/mL
[4]; Balb/c, mouse, plasma, iv, 3 mg/kg, IV 3 mg/kg, read-out: AUC0-int (first line)
  AUC: 120 µg·h/mL
[4]; Balb/c, mouse, plasma, iv, 3 mg/kg, IV 3 mg/kg, read-out: AUC0-int (second line)
  AUC: 124 µg·h/mL
[4]; [5]
  Cmax: 98200 ng/mL
  Tmax: 0.25 h
[4]; [6]
  concentration at 0.25 h: 98200 ng/mL
  concentration at 1 h: 69200 ng/mL
  concentration at 2 h: 59000 ng/mL
  concentration at 6 h: 54600 ng/mL
  concentration at 12 h: 42800 ng/mL
  concentration at 24 h: 15100 ng/mL
[4]; Balb/c, mouse, plasma, IP 30 mg/kg, read-out: T1/2 (converted)
  half-life: 9.42 h
[4]; Balb/c, mouse, plasma, IV 3 mg/kg
  C0: 35000 ng/mL
[4]; [7]
  concentration at 0.25 h: 29500 ng/mL
  concentration at 1 h: 17700 ng/mL
  concentration at 2 h: 11600 ng/mL
  concentration at 6 h: 6110 ng/mL
  concentration at 12 h: 3360 ng/mL
  concentration at 24 h: 541 ng/mL
[4]; Balb/c, mouse, plasma, IV 3 mg/kg, read-out: T1/2 (converted)
  half-life: 5.06 h
[4]; Balb/c, mouse, serum, intravenous and intraperitoneal, in vivo, read-out: half-life (t1/2) (converted)
  half-life: 9 h
[4]; Balb/c, mouse, serum, ip, 30 mg/kg, administered I.P. 30.0 mg/Kg, mice, read-out: bioavailability
  bioavailability: 80%
[4]; administered I.P. 30.0 mg/Kg, mice, 30 mg/kg
  bioavailability: ~100%
Cancer cells
  toxicity to primary normal cells and cancer cells: non-toxic
Cancer cells; tested at 50 μM
  toxicity: did not show any toxicity
Cancer cells; tested up to 20 μM
  cytotoxicity: did not show any significant cytotoxicity
melanocytes
  toxicity to melanocytes: did not show any significant toxicity
U87 cells
  proliferation following radiation: significantly decreased
